Results published in patent US11713309B2, “Solid forms of Cerdulatinib” (Alexion Pharmaceuticals, Inc., priority 2018, dated 2023).
In brackets after ≈: the same amount, converted by molar mass.

What was measured:
Type in all cases: physicochemical
[1] = Kinetic solubility in water; settings: 37° C., listed as Naphthalene disulfonate Type A; for pH of supernatant: water (native pH 7.6); for Kinetic solubility: water
Description: (§1) Kinetic solubility testing was conducted as follows: About 40-55 mg material was weighed into a 5-mL EP pipe. 4 mL of water/bio-relevant media (SGF, FaSSIF, or FeSSIF) was added into the corresponding sample pipe (drug loading: ˜10 mg/mL calculated as freebase). The pipes were capped tightly and the material was verified to be in contact with the media. The sample vials were placed on a roller and start rolling at 37° C. (rate: 25 r/min). Samples were taken at 1, 2, 4, 24 h. For each time point, 1.0 mL of suspension was transferred into a 2-mL centrifuge tube and the samples were centrifuged. The supernatant was filtered via 0.45 μm PTFE membrane and solubility and pH were measured. An XRPD test on residual solids was conducted.

[2] = Kinetic solubility in SGF; settings: listed as Naphthalene disulfonate Type A
Description: as §1

[3] = Kinetic solubility in FaSSIF; settings: listed as Naphthalene disulfonate Type A
Description: as §1

[4] = Kinetic solubility in FeSSIF; settings: listed as Naphthalene disulfonate Type A
Description: as §1

SMILES: CCS(=O)(=O)N1CCN(c2ccc(Nc3ncc(C(N)=O)c(NC4CC4)n3)cc2)CC1 [4-(cyclopropylamino)-2-(4-(4-(ethylsulfonyl)piperazin-1-yl)phenylamino)pyrimidine-5-carboxamide]
- pH of supernatant ([1]; 1 h): 2.8
- pH of supernatant ([1]; 2 h): 2.6
- pH of supernatant ([1]; 4 h): 2.5
- pH of supernatant ([1]; 24 h): 2.4
- Kinetic solubility ([1]; 1 h): 1.4 µg/mL
- Kinetic solubility ([1]; 2 h): 2.5 µg/mL
- Kinetic solubility ([1]; 4 h): 1.5 µg/mL
- Kinetic solubility ([1]; 24 h): 1.6 µg/mL
- Solubility (mg/mL) 1 h ([2]; SGF, 37° C., 1 h, drug loading ~10 mg/mL as freebase): 0.019 mg/mL (≈ 42.6 µM)
- Solubility (mg/mL) 2 h ([2]; SGF, 37° C., 2 h): 0.016 mg/mL (≈ 35.9 µM)
- Solubility (mg/mL) 4 h ([2]; SGF, 37° C., 4 h): 0.018 mg/mL (≈ 40.4 µM)
- Solubility (mg/mL) 24 h ([2]; SGF, 37° C., 24 h): 0.016 mg/mL (≈ 35.9 µM)
- pH 1 h ([2]; supernatant, SGF (native pH 1.8), 1 h): 2.0
- pH 2 h ([2]; supernatant, SGF (native pH 1.8), 2 h): 1.9
- pH 4 h ([2]; supernatant, SGF (native pH 1.8), 4 h): 2.0
- pH 24 h ([2]; supernatant, SGF (native pH 1.8), 24 h): 1.8
- Solubility (mg/mL) 1 h ([3]; FaSSIF, 37° C., 1 h, drug loading ~10 mg/mL as freebase): 0.0035 mg/mL (≈ 7.86 µM)
- Solubility (mg/mL) 2 h ([3]; FaSSIF, 37° C., 2 h): 0.0037 mg/mL (≈ 8.3 µM)
- Solubility (mg/mL) 4 h ([3]; FaSSIF, 37° C., 4 h): 0.0030 mg/mL (≈ 6.73 µM)
- Solubility (mg/mL) 24 h ([3]; FaSSIF, 37° C., 24 h): 0.0027 mg/mL (≈ 6.06 µM)
- Final Form ([3]; XRPD of residual solids, FaSSIF, 1 h, 2 h, 4 h, 24 h): New form X
- pH 1 h ([3]; supernatant, FaSSIF (native pH 6.5), 1 h): 2.8
- pH 2 h ([3]; supernatant, FaSSIF (native pH 6.5), 2 h): 2.7
- pH 4 h ([3]; supernatant, FaSSIF (native pH 6.5), 4 h): 2.6
- pH 24 h ([3]; supernatant, FaSSIF (native pH 6.5), 24 h): 2.5
- Solubility (mg/mL) 1 h ([4]; 37° C., 1 h, drug loading ~10 mg/mL as freebase): 0.0088 mg/mL (≈ 19.8 µM)
- Solubility (mg/mL) 2 h ([4]; 37° C., 2 h): 0.0079 mg/mL (≈ 17.7 µM)
- Solubility (mg/mL) 4 h ([4]; 37° C., 4 h): 0.0069 mg/mL (≈ 15.5 µM)
- Solubility (mg/mL) 24 h ([4]; 37° C., 24 h): 0.0059 mg/mL (≈ 13.2 µM)
- Final Form ([4]; XRPD of residual solids, 1 h, 2 h, 4 h, 24 h): New form X
- pH 1 h ([4]; supernatant, 1 h): 4.6
- pH 2 h ([4]; supernatant, 2 h): 4.6
- pH 4 h ([4]; supernatant, 4 h): 4.6
- pH 24 h ([4]; supernatant, 24 h): 4.6
